Values of other authors, collected in patent US6358910B1, “Detergent compositions” (Lever Brothers Company, divison of Conopco, Inc., priority 1997, dated 2002).

Conditions: grams of solid to form a saturated solution in 100 grams of water at 20° C.

| Compound | Water Solubility (g/100 g) |
| --- | --- |
| O=BO[O-].[Na+] [Sodium perborate anhydrous] | 3.7 |
| O=P(O)(O)OP(=O)(O)OP(=O)(O)O [Sodium tripolyphosphate anhydrous] | 15 |
| NC(N)=O [Urea] | >100 |
